We go through five molecules from BindingDB's records for PubMed 32711292 (n/a, 2020).

Assay [1] concerns the target T1, Maltase-glucoamylase (Homo sapiens, UniProt O43451). The assay can be described thus: Inhibition of alpha-glucosidase (unknown origin) by HPLC analysis.
Assay [2] concerns the target T1, Maltase-glucoamylase. In words: Inhibition of alpha-glucosidase (unknown origin).

T1 sequence (O43451 whole entry): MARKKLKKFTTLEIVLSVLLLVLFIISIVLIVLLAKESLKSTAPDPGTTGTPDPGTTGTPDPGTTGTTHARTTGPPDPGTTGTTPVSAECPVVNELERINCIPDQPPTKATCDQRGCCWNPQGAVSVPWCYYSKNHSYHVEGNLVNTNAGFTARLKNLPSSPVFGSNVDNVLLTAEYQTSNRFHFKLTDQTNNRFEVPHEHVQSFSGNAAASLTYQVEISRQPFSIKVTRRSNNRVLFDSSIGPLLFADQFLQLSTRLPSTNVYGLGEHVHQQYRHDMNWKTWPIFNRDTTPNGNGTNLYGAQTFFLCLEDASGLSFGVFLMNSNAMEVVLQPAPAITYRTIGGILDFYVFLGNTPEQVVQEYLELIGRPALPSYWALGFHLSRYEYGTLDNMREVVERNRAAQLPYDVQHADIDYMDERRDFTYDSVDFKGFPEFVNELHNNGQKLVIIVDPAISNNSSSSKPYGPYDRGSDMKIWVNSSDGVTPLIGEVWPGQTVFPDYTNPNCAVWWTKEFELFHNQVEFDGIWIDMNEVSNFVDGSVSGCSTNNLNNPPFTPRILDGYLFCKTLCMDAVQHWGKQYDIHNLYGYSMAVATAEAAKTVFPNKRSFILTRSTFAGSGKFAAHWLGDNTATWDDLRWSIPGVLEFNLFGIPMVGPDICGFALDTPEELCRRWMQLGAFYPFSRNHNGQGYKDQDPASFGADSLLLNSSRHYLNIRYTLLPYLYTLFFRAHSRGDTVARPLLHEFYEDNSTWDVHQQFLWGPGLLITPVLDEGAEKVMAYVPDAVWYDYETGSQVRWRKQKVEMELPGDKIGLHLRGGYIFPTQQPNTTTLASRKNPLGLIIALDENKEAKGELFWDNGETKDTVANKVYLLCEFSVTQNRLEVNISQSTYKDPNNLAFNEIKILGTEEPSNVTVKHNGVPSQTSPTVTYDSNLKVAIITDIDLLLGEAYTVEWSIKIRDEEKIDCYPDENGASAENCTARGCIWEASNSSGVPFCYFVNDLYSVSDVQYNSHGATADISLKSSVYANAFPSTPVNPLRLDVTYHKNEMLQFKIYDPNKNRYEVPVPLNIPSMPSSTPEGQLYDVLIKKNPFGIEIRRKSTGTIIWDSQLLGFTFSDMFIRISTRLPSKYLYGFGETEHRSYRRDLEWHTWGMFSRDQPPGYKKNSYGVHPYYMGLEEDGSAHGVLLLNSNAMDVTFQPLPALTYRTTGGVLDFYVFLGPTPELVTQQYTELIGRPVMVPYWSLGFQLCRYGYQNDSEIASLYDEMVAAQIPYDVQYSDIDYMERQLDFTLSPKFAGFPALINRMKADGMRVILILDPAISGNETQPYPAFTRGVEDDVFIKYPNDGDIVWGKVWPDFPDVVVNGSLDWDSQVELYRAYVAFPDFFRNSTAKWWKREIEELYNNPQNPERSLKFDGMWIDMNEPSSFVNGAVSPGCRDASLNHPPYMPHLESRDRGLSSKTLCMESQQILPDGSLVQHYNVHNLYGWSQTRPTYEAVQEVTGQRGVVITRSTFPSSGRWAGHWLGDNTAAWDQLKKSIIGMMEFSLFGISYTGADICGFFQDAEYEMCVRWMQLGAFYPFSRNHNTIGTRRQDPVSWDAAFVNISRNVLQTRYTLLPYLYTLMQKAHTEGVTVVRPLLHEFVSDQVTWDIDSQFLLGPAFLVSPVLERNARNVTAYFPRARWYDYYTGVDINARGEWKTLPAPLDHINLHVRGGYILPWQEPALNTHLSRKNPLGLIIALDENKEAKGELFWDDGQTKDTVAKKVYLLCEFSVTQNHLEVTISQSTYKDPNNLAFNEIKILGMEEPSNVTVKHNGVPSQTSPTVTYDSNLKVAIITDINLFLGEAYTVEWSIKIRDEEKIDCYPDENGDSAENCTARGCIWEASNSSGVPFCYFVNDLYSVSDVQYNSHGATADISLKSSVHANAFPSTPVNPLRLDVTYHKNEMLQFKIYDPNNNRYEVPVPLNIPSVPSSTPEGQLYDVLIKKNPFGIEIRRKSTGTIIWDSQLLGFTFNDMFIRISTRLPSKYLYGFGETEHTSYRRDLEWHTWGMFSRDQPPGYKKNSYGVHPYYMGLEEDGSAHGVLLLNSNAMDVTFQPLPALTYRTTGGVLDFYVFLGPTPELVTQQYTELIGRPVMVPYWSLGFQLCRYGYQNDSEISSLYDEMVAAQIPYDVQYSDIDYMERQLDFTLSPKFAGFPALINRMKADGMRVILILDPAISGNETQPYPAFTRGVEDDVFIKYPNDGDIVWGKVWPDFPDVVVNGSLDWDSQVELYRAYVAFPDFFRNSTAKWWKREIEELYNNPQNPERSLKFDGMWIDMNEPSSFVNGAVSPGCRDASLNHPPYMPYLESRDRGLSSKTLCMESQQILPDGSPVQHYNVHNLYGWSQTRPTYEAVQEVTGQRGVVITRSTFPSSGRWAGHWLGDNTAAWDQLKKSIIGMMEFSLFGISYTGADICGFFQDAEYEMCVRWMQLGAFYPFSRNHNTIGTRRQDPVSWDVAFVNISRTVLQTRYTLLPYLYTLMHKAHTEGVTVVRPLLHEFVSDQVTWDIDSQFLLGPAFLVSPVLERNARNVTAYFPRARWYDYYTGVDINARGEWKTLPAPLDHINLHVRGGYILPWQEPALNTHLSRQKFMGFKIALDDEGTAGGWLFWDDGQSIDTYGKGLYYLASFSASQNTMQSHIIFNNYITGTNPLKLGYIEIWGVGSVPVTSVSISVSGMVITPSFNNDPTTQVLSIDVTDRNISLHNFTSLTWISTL

The IC50 is the concentration that gives 50% inhibition. Molecule `COc1ccc(CCc2cc(O)c(O)c(OC)c2)cc1` gave an IC50 against Maltase-glucoamylase [1] of 200 µM.
The molecule `COc1cc([C@@H]2Oc3cc(CCc4ccc(O)cc4)cc(OC)c3O[C@H]2CO)cc(OC)c1O` displayed an IC50 against Maltase-glucoamylase [1] of 9460 µM. Compared with the last molecule, the IC50 is about 47-fold higher.
`COc1cc(CCc2cccc(O)c2)cc(O)c1O` registered a half-maximal inhibitory concentration (IC50) against Maltase-glucoamylase [1] of 214 µM.
`COc1cc(O)cc(CCc2cccc(O)c2)c1` [Batatasin III (4)] showed an IC50 at Maltase-glucoamylase [2] of 149 µM.
For the molecule `COc1cc(O)cc(CCc2ccc(O)c(OC)c2)c1` [GIGANTOL], the IC50 on Maltase-glucoamylase [2] turned out to be 103 µM.
